Assay results taken from US11135320B2, “Radioligands for pretargeted pet imaging and methods of their therapeutic use” (priority 2015, dated 2021).
“And” between values parts separate entries of the source, which are not always exact repeats. Equal entries are not always repeated.

Columns and labels:
[1] = Stability of ^64Cu-labeled tetrazines in human serum at 37° C.; type: in vitro ADME
Protocol: Next, the aqueous and serum stabilities were determined via incubation at 37° C. (Tables 2-3). […] For example, after a 4 h incubation, 77.8±3.5% and 81.2±3.7% of ^64Cu-Tz-PEG7-NOTA and ^64Cu-Tz-SarAr, respectively, remained intact. Importantly, the release of ^64Cu^2+ from the chelators was not observed in any of the trials. Despite the rates of decomposition, the speed of the IEDDA reaction was faster than short blood half-lives of these small molecules; therefore, the radioligands remained functional in vivo.
^64Cu-Tz-PEG7-NOTA and ^64Cu-Tz-SarAr (1000 μCi) were incubated on an agitating thermomixer (300 rpm) at 37° C. in 500 μL of either PBS (pH 7.4) or human serum. At each prescribed time-point, 100 μL of the solution was removed and placed into a 1.7 mL microcentrifuge tube. For the PBS samples, the compound was injected directly onto the HPLC and analyzed using a gradient of 5:95 CH3CN:H2O (both with 0.1% TFA) to 95:5 CH3CN:H2O over 15 min. For the serum samples, 100 μL cold CH3CN was added to the serum, and the resultant mixture was vortexed and centrifuged at 10,000 rpm for 10 min. After this, the clear supernatant was removed, moved to a new 1.7 mL microcentrifuge tube, and centrifuged again at 10,000 rpm for 10 min. The clear supernatant from this second spin was then injected into the HPLC and analyzed using a gradient of 5:95 CH3CN:H2O (both with 0.1% TFA) to 95:5 CH3CN:H2O over 15 min. The residual protein from the centrifuge spins was checked for radioactivity, and only minimal residual activity remained (less than 1% of the starting ^64Cu for each ^64Cu-Tz-PEG7-NOTA and ^64Cu-Tz-SarAr). The fraction of intact ^64Cu-Tz-PEG7-NOTA or ^64Cu-Tz-SarAr was determined by integrating the peak corresponding to the compound (tR=9.7 and 8.7 minutes, respectively) and dividing by the integral over the whole HPLC run. Both the injection loop and column were monitored to detect the presence of residual activity. All experiments were performed in triplicate.

[2] = Acute biodistribution of ^64Cu-labeled tetrazine radioligands in healthy mice; type: in vivo, athymic nude mice; settings: for Large Intestine activity concentration / Small Intestine activity concentration / Stomach activity concentration: contents not removed
Protocol: (§1) Mice were administered ^64Cu-Tz-NOTA (25-30 μCi in 200 μL 0.9% sterile saline) via intravenous tail vein injection. Animals (n=4 per group) were euthanized by CO2(g) asphyxiation at 1, 4, and 24 h after injection. After asphyxiation, tissues were removed, rinsed in water, dried in air for 5 min, weighed, and counted in a gamma counter calibrated for ^64Cu. Counts were converted into activity using a calibration curve generated from known standards. Count data were background- and decay-corrected to the time of injection, and the percent injected dose per gram (% ID/g) for each tissue sample was calculated by normalization to the total activity injected. Contents within the stomach, small intestine, and large intestine were not removed for the measurements.
as §1, with “^64Cu-Tz-PEG7-NOTA” for “^64Cu-Tz-NOTA”
as §1, with “^64Cu-Tz-SarAr” for “^64Cu-Tz-NOTA”
as §1, with “Healthy female athymic nude mice (n=4 per radioligand) were” for “Mice were”, “administered ^64Cu-Tz-PEG7-NOTA or ^64Cu-Tz-SarAr” for “administered ^64Cu-Tz-NOTA”, “vein injection (t=0).” for “vein injection.”, “4, 12,” for “4,”, “injected.” for “injected. Contents within the stomach, small intestine, and large intestine were not removed for the measurements.”

Row | Structure (SMILES) | % Intact (Serum) ([1]; 2 h) | Blood activity concentration ([2]; 1 h p.i.) | Bone activity concentration ([2]; 1 h p.i.) | Heart activity concentration ([2]; 1 h p.i.) | Kidney activity concentration ([2]; 1 h p.i.) | Liver activity concentration ([2]; 1 h p.i.) | Lung activity concentration ([2]; 1 h p.i.) | Muscle activity concentration ([2]; 1 h p.i.) | Spleen activity concentration ([2]; 1 h p.i.) | Large Intestine activity concentration ([2]; 1 h p.i.) | Small Intestine activity concentration ([2]; 1 h p.i.) | Stomach activity concentration ([2]; 1 h p.i.) | Blood activity concentration ([2]; 4 h p.i.) | Bone activity concentration ([2]; 4 h p.i.) | Heart activity concentration ([2]; 4 h p.i.) | Kidney activity concentration ([2]; 4 h p.i.) | Liver activity concentration ([2]; 4 h p.i.) | Lung activity concentration ([2]; 4 h p.i.) | Muscle activity concentration ([2]; 4 h p.i.) | Spleen activity concentration ([2]; 4 h p.i.) | also measured
1 | O=C([O-])CN1CCN(CC(=O)[O-])CC(Cc2ccc(NC(=O)CCCC(=O)NCc3ccc(-c4nncnn4)cc3)cc2)N(CC(=O)[O-])CC1.[64Cu+2] (stereo not shown) [^64Cu-Tz-NOTA] | 85.4 +/− 6.6% | 0.23 ± 0.01 % ID/g | 0.10 ± 0.03 % ID/g | 0.10 ± 0.02 % ID/g | 0.53 ± 0.09 % ID/g | 1.45 ± 0.39 % ID/g | 0.38 ± 0.06 % ID/g | 0.04 ± 0.02 % ID/g | 0.15 ± 0.05 % ID/g | 11.58 ± 2.19 % ID/g | 3.14 ± 1.47 % ID/g | 0.12 ± 0.04 % ID/g | 0.13 ± 0.01 % ID/g | 0.07 ± 0.04 % ID/g | 0.11 ± 0.02 % ID/g | 0.33 ± 0.07 % ID/g | 0.42 ± 0.13 % ID/g | 0.27 ± 0.08 % ID/g | 0.03 ± 0.02 % ID/g | 0.09 ± 0.02 % ID/g | Large Intestine activity concentration ([2]; 4 h p.i.): 10.0±1.3 % ID/g and 10.03 ± 1.33 % ID/g; Small Intestine activity concentration ([2]; 4 h p.i.): 0.17 ± 0.07 % ID/g; Stomach activity concentration ([2]; 4 h p.i.): 0.05 ± 0.03 % ID/g; Blood activity concentration ([2]; 24 h p.i.): 0.07 ± 0.01 % ID/g; Bone activity concentration ([2]; 24 h p.i.): 0.03 ± 0.01 % ID/g; Heart activity concentration ([2]; 24 h p.i.): 0.09 ± 0.01 % ID/g; Kidney activity concentration ([2]; 24 h p.i.): 0.22 ± 0.07 % ID/g; Liver activity concentration ([2]; 24 h p.i.): 0.21 ± 0.06 % ID/g; Lung activity concentration ([2]; 24 h p.i.): 0.21 ± 0.02 % ID/g; Muscle activity concentration ([2]; 24 h p.i.): 0.03 ± 0.03 % ID/g; Spleen activity concentration ([2]; 24 h p.i.): 0.08 ± 0.02 % ID/g; Large Intestine activity concentration ([2]; 24 h p.i.): 1.4±0.7 % ID/g and 1.37 ± 0.65 % ID/g; Small Intestine activity concentration ([2]; 24 h p.i.): 0.10 ± 0.02 % ID/g; Stomach activity concentration ([2]; 24 h p.i.): 0.18 ± 0.11 % ID/g
2 | O=C(O)CN1CCN(CC(=O)O)CC(Cc2ccc(NC(=S)NCCOCCOCCOCCOCCOCCOCCOCCNC(=O)CCCC(=O)NCc3ccc(-c4nncnn4)cc3)cc2)N(CC(=O)O)CC1.[64Cu] (stereo not shown) [^64Cu-Tz-PEG7-NOTA] | 84.7 +/− 4.8% and 84.7 ± 4.8% | 0.38 ± 0.14 % ID/g | 0.09 ± 0.06 % ID/g | 0.17 ± 0.02 % ID/g | 1.5±0.2 % ID/g and 1.51 ± 0.24 % ID/g | 0.77 ± 0.11 % ID/g | 0.49 ± 0.11 % ID/g | 0.05 ± 0.01 % ID/g | 0.19 ± 0.01 % ID/g | 6.35 ± 0.69 % ID/g | 0.5 ± 0.26 % ID/g | 0.18 ± 0.06 % ID/g | 0.26 ± 0.14 % ID/g | 0.07 ± 0.02 % ID/g | 0.18 ± 0.03 % ID/g | 1.2±0.4 % ID/g and 1.23 ± 0.39 % ID/g | 0.63 ± 0.2 % ID/g | 0.35 ± 0.13 % ID/g | 0.03 ± 0.02 % ID/g | 0.14 ± 0.02 % ID/g | % Intact (Serum) ([1]; 4 h): 77.8±3.5%; % Intact (Serum) ([1]; 8 h): 64.0 ± 6.5%; Large Intestine activity concentration ([2]; 4 h p.i.): 4.9±0.7 % ID/g and 4.91 ± 0.71 % ID/g; Small Intestine activity concentration ([2]; 4 h p.i.): 0.3 ± 0.14 % ID/g; Stomach activity concentration ([2]; 4 h p.i.): 0.36 ± 0.25 % ID/g; Blood activity concentration ([2]; 24 h p.i.): 0.08 ± 0.01 % ID/g; Bone activity concentration ([2]; 24 h p.i.): 0.06 ± 0.01 % ID/g; Heart activity concentration ([2]; 24 h p.i.): 0.09 ± 0.01 % ID/g; Kidney activity concentration ([2]; 24 h p.i.): 0.86 ± 0.11 % ID/g; Liver activity concentration ([2]; 24 h p.i.): 0.32 ± 0.11 % ID/g; Lung activity concentration ([2]; 24 h p.i.): 0.17 ± 0.03 % ID/g; Muscle activity concentration ([2]; 24 h p.i.): 0.02 ± 0.01 % ID/g; Spleen activity concentration ([2]; 24 h p.i.): 0.12 ± 0.01 % ID/g; Large Intestine activity concentration ([2]; 24 h p.i.): 0.40 ± 0.15 % ID/g; Small Intestine activity concentration ([2]; 24 h p.i.): 0.10 ± 0.01 % ID/g; Stomach activity concentration ([2]; 24 h p.i.): 0.09 ± 0.02 % ID/g
3 | NC12CNCCNCC(NCc3ccc(CNC(=O)CCCC(=O)NCc4ccc(-c5nncnn5)cc4)cc3)(CNCCNC1)CNCCNC2.[64Cu+2] [^64Cu-Tz-SarAr] | 92.0 +/− 2.1% and 92.0 ± 2.1% | 0.42 ± 0.11 % ID/g | 0.12 ± 0.03 % ID/g | 0.22 ± 0.06 % ID/g | 2.3±0.4 % ID/g and 2.34 ± 0.35 % ID/g | 0.72 ± 0.03 % ID/g | 0.32 ± 0.06 % ID/g | 0.05 ± 0.03 % ID/g | 0.38 ± 0.06 % ID/g | 0.07±0.01 % ID/g | 0.29 ± 0.21 % ID/g | 0.24 ± 0.14 % ID/g | 0.15 ± 0.01 % ID/g | 0.09 ± 0.01 % ID/g | 0.12 ± 0.02 % ID/g | 1.57 ± 0.19 % ID/g | 0.42 ± 0.24 % ID/g | 0.31 ± 0.09 % ID/g | 0.04 ± 0.01 % ID/g | 0.2 ± 0.05 % ID/g | % Intact (Serum) ([1]; 4 h): 81.2±3.7%; % Intact (Serum) ([1]; 8 h): 67.7 ± 4.3%; Large Intestine activity concentration ([2]; 4 h p.i.): 0.08 ± 0.03 % ID/g; Small Intestine activity concentration ([2]; 4 h p.i.): 0.16 ± 0.03 % ID/g; Stomach activity concentration ([2]; 4 h p.i.): 0.2 ± 0.1 % ID/g; Blood activity concentration ([2]; 24 h p.i.): 0.06 ± 0.01 % ID/g; Bone activity concentration ([2]; 24 h p.i.): 0.08 ± 0.02 % ID/g; Heart activity concentration ([2]; 24 h p.i.): 0.08 ± 0.02 % ID/g; Kidney activity concentration ([2]; 24 h p.i.): 1.26 ± 0.41 % ID/g; Liver activity concentration ([2]; 24 h p.i.): 0.28 ± 0.07 % ID/g; Lung activity concentration ([2]; 24 h p.i.): 0.24 ± 0.06 % ID/g; Muscle activity concentration ([2]; 24 h p.i.): 0.03 ± 0.01 % ID/g; Spleen activity concentration ([2]; 24 h p.i.): 0.21 ± 0.04 % ID/g; Large Intestine activity concentration ([2]; 24 h p.i.): 0.07 ± 0.01 % ID/g; Small Intestine activity concentration ([2]; 24 h p.i.): 0.07 ± 0.01 % ID/g; Stomach activity concentration ([2]; 24 h p.i.): 0.05 ± 0.01 % ID/g
